# Results as given in patent EP0469084B1, “HEPATOSPECIFIC INSULIN ANALOGUES” (MOUNT SINAI SCHOOL OF MEDICINE OF THE CITY UNIVERSITY OF …, priority 1989, dated 1995).
# Experiments:
# [1] = from U.S. Patent 4,992,417 and PCT/US88/02289; cited from earlier work
# insulin receptors = experiment: Insulin receptor binding assay (inhibition of specific 125I-insulin binding, rat liver plasma membrane fraction); settings: concentration ratio of unlabelled insulin to analogue required to inhibit 50% of specific 125I-insulin binding; rat liver plasma membranes, 45 min at 24°C, pH 7.4
# Experimental: Although insulin analogues, in general, maintain some residual insulin activity, the potency of such analogues is usually only a fraction of that of natural insulins. The potency of human, bovine and porcine insulins in USP standards is about 25-26 IU (international units) per mg protein. […]
# Briefly, triplicate 0.2ml incubations contained ¹²⁵I-insulin, 3 x 10⁻¹⁰M, unlabelled insulin or [Trp¹⁴-A] insulin prepared as in Example 1, and plasma membranes (20-40 »g of protein) in 0.1 M sodium phosphate, pH 7.4, containing 0.6% fraction V bovine serum albumin. […] The filters were washed twice with the ice cold buffer, dried, and then radioactivity was counted in a scintillation counter using Filtron-X®. […]
# rat adipocytes = experiment: Lipogenesis assay (conversion of [3-3H] glucose into lipids in isolated adipocytes); assay type: cell-based; settings: for potency in lipogenesis compared to the natural hormone: concentration ratio of bovine insulin to analogue producing 50% of maximum stimulation of lipogenesis
# From the text: (§1) Although insulin analogues, in general, maintain some residual insulin activity, the potency of such analogues is usually only a fraction of that of natural insulins. The potency of human, bovine and porcine insulins in USP standards is about 25-26 IU (international units) per mg protein. Standard assay for measuring insulin potency include inter alia (1) insulin radioreceptorassays, in which the relative potency of an insulin is defined as the ratio of insulin to insulin analogue required to displace 50% of ¹²⁵I-insulin specifically bound to insulin receptors present on cell membranes, e.g. a rat liver plasma membrane fraction, isolated rat adipocytes, or isolated rat hepatocytes; (2) lipogenesis assays, performed e.g. with rat adipocytes, in which relative insulin potency is defined as the ratio of insulin to insulin analogue required to achieve 50% of the maximum conversion of [3-³H] glucose into organic-extractable material (i.e. lipids); (3) glucose oxidation assays in isolated fat cells in which the relative potency of the insulin analogue is defined as the ratio of insulin to insulin analogue to achieve 50% of the maximum conversion of glucose-1-[¹⁴C] into [¹⁴CO₂]; (4) insulin radioimmunoassays which can determine the immunogenicity of insulin analogues by measuring the effectiveness by which insulin or an insulin analogue competes with ¹²⁵I-insulin in binding to specific anti-insulin antibodies; (5) inhibition of gluconeogenesis performed on confluent monolayers of a well differentiated hepatoma cell line (FAO) in which inhibition of glucose secretion into the medium is determined as a function of the concentration of insulin or insulin analogue.
# In this Example the materials used and the analytical procedures followed are those found in Kitagawa et al., Biochemistry, 23: 1405-1413 (1984). ¹²⁵I-insulin for receptor binding studies and [3-³H] glucose for lipogenesis were obtained from DuPont NEN Research Products. Cellulose acetate membrane filters, 0.2 »m pore size, were products of Sartorius. Glass-fiber filters, Type GFC, were from Whatman. Collagenase, Type II crude, was obtained from Worthington. […]
# These assays measured the ability of the insulin analogue as compared to bovine insulin to convert [3-³H] glucose into lipids.
# Adipocytes were prepared by incubating epididymal and perirenal fat pads obtained from male rats weighing 200-300 g with 1.0 mg/ml collagenase for 60 min at 37°C, followed by filtration through gauze and then through fine-mesh silk. […] Samples were extracted with 10 ml of Soluscint-0® for 30 min at room temperature before counting the radioactivity in a scintillation counter. […] Zero and 100% stimulation of lipogenesis were defined as radioactivity observed in the absence and presence, respectively, of 9.1 x 10⁻¹⁰M insulin (5.5 ng/ml). […]
# FAO cells = experiment: Inhibition of gluconeogenesis assay (glucose secretion by confluent hepatoma cell monolayers); assay type: cell-based; settings: for potency in inhibiting gluconeogenesis relative to the natural hormone: ratio of concentration of insulin to analogue producing half-maximal inhibition of glucose production, FAO hepatoma cells
# From the text: as §1
# This assay was carried out on confluent monolayers of a well differentiated hepatoma cell line (Lauris et al. Endocrinology 118:2519-2524 (1986)) in which glucose production was monitored with a commercial glucose oxidase kit (Sigma kit no. 510-A, Sigma Technical Bulletin 510, 1983). Inhibition of glucose secretion into the medium was determined as a function of the concentration of insulin or insulin analogue, and the relative potency of the analogue was defined as the ratio of the concentration of insulin to analogue required to produce half-maximal inhibition of glucose production. The cell culture and glucose production was carried out as described by Lauris et al., supra.
# The potency of the synthetic insulin in inhibiting gluconeogenesis is calculated to be about 90% relative to the natural hormone.
# [2] = from W. Danho et al., Chemical Abstracts 94: 47733x; cited from earlier work
# [3] = compared with insulin, FAO cells
substance,measurement,setting,value
[10-Aspartic Acid-B] human insulin,potency relative to natural insulins,[1],4 to 5 times
[Trp¹⁴-A] insulin,"potency of that of the natural hormone (relative potency, receptor binding)",insulin receptors,about 60%
same,concentration of agonist producing half-maximal stimulation of lipogenesis,rat adipocytes; compared with bovine insulin,about twice the concentration of agonist
same,maximum stimulation of lipogenesis,rat adipocytes; compared with bovine insulin,same maximum stimulation of lipogenesis
same,potency in lipogenesis compared to the natural hormone,rat adipocytes,about 60%
same,potency in lipogenesis compared to the natural hormone,rat adipocytes; listed as synthetic insulin,approximately 60%
same,concentration of agonist producing half-maximal inhibition of gluconeogenesis,FAO cells; [3],approximately the same concentration of agonist
same,maximum inhibition of gluconeogenesis,FAO cells; [3],same maximum inhibition of gluconeogenesis
same,potency in inhibiting gluconeogenesis relative to the natural hormone,FAO cells,90%
same,potency in inhibiting gluconeogenesis relative to the natural hormone,FAO cells; listed as [Trp ¹⁴-A] insulin,about 90%
porcine A14-phenylalanine insulin,biological activity compared with native insulin,[2],virtually the same biological activity as native insulin
